Assay results taken from ChEMBL document CHEMBL1777770, “Design, synthesis, inhibitory activity, and binding mode study of novel DNA methyltransferase 1 inhibitors” (Bioorg Med Chem Lett, 2010).
Calls of active or inactive are those of the source. The rule behind the calls is not given here.

Assays:
[1] = biological target: DNA (cytosine-5)-methyltransferase 1 (Homo sapiens) (UniProt P26358); assay: Inhibition of human DNA methyltransferase using S-adenosyl-L-methionine substrate at 1000 uM measured after 60 mins
[2] = biological target: DNA (cytosine-5)-methyltransferase 1 (Homo sapiens) (UniProt P26358); assay: Inhibition of human DNA methyltransferase using S-adenosyl-L-methionine substrate at 10 to 1000 uM measured after 60 mins
[3] = biological target: DNA (cytosine-5)-methyltransferase 1 (Homo sapiens) (UniProt P26358); assay: Inhibition of human DNA methyltransferase using S-adenosyl-L-methionine substrate at 10 uM measured after 60 mins

DNA (cytosine-5)-methyltransferase 1 (Homo sapiens), sequence (P26358 whole entry): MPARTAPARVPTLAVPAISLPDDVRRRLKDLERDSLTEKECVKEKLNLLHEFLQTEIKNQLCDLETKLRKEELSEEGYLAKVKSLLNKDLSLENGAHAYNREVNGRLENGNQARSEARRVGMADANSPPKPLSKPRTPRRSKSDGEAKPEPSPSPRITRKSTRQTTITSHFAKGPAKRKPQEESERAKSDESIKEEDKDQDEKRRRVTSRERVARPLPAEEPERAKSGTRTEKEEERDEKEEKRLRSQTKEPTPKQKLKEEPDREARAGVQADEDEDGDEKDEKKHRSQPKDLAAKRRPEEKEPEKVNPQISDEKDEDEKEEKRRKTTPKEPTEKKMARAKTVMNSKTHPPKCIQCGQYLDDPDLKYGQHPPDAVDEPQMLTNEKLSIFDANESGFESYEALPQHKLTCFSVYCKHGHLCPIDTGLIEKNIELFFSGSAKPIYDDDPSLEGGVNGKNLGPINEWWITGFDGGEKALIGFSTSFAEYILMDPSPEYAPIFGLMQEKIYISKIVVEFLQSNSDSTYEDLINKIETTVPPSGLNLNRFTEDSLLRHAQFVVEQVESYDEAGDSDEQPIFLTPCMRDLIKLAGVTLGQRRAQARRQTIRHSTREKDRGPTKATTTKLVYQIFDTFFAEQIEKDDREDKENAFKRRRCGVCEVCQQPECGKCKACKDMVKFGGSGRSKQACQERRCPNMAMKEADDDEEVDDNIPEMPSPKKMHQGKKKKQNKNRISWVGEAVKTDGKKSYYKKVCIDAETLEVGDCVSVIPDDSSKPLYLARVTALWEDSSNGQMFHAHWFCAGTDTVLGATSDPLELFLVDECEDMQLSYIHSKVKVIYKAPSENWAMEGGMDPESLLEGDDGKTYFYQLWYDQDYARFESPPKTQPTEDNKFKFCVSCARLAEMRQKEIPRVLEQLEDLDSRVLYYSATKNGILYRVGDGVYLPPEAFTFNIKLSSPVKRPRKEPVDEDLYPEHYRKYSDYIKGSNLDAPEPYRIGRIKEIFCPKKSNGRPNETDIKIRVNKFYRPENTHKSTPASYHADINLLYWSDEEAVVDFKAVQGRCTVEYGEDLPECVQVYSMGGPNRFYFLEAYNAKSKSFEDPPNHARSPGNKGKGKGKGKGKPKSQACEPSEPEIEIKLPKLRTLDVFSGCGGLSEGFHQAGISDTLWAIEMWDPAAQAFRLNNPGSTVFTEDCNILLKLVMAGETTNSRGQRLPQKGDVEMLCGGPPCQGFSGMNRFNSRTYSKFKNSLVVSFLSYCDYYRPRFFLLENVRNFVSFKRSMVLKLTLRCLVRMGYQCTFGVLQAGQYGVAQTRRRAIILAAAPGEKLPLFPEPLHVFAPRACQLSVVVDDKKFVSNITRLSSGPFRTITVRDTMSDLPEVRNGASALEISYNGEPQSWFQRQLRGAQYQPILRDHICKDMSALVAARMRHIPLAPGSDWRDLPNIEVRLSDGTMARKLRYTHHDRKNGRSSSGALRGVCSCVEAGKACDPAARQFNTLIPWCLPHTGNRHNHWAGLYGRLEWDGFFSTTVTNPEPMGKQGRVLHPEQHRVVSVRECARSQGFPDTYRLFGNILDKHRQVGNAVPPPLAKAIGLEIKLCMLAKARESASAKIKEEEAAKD

| Compound | inhibition [1] [%] | inhibition [2] | inhibition [3] [%] |
| --- | --- | --- | --- |
| O=C(O)[C@H](Cc1c[nH]c2ccccc12)N1C(=O)c2ccccc2C1=O | 34 | – | – |
| CC1=CC(=O)N([C@@H](Cc2c[nH]c3ccccc23)C(=O)O)C1=O | – | Active | – |
| O=C(O)[C@H](Cc1c[nH]c2ccccc12)N1C(=O)CCC1=O | – | inactive | – |
| CC1=C(C)C(=O)N([C@@H](Cc2c[nH]c3ccccc23)C(=O)O)C1=O | – | Active | – |
| O=C(O)[C@H](Cc1c[nH]c2ccccc12)N1C(=O)C=CC1=O | – | Active | 60 |
| O=C(O)[C@H](Cc1c[nH]c2ccccc12)N1C(=O)C=C(c2ccccc2)C1=O | – | Active | – |
